Measured values: patent publication US6534489B1, “Organophosphorus compounds and the use thereof” (Jomaa Pharmaka GmbH, priority 1998, dated 2003)
Read-outs that look alike come from different tables or passages of the source.

Assays:
[1] = test system: Plasmodium falciparum; experiment: Antimalarial activity: in vitro Plasmodium falciparum culture, [3H]-hypoxanthine incorporation; assay type: cell-based; settings: Example 11, asynchronous blood culture, 48 h + 24 h with [3H]-hypoxanthine, dilution series 100 to 0.14 μmol l−1, IC50 determined by extrapolating, read-out: IC 50 values, Plasmodium falciparum
Procedure: The antimalarial activity of compounds 1 to 5 was determined using in vitro cultures of the causative organism of malaria, Plasmodium falciparum. 200 μl of an asynchronous Plasmodium falciparum culture with a 0.4% blood parasite content and a haematocrit of 2% were loaded into each of the wells of a 96 well microtitre plate. A serial dilution series of the compounds was then prepared in steps of three between concentrations of 100 and 0.14 μmol 1^−1. The plates are incubated at 37° C., 3% CO2 and 5% O2 over a period of 48 hours. 30 μl of medium supplemented with 27 ηCi ml^−1 of [^3H]-hypoxanthine were then added to each well. After 24 hours' incubation, the parasites were harvested by filtration through glass fibre filters and the incorporated radioactivity was measured. Inhibition of parasite growth was measured as the percentage inhibition of tritium incorporation relative to a comparison without the substance. The median inhibitory concentration (IC50) of the substance was determined by extrapolating the values.

[2] = test system: E. coli K12; experiment: Antibacterial action: growth inhibition of E. coli K12 in LB medium (turbidity); assay type: cell-based; settings: Escherichia coli, Example 10, overnight at 37° C., dilution series 500, 100, 50, 10 and 0 μmol l−1, growth assessed by turbidity, read-out: IC 50 values, E. coli
Procedure: Antibacterial action of the above-stated compounds 1 to 5
A dilution series comprising the concentrations 500, 100, 50, 10 and 0 μmol 1^−1 of the individual compounds 1 to 5 in LB medium is introduced into 5 culture microtubes in a volume of 0.5 ml. Each of the microtubes was inoculated with 10 μl of an overnight culture of E. coli K12 and shaken overnight at 37° C. Bacterial growth was assessed on the basis of the turbidity of the medium.

Row | Compound | IC50 [1] | IC50 ([1]; Plasmodium falciparum) | IC50 [2]
1 | 3-acetyl-3-(N-hydroxylamino)-3-methyl-[2-(3-pyridyl)ethyl]propylphosphonic acid [Compound 5] | 183 nM |  | 
2 | CC(=O)N(O)C(CCc1ccccc1)CCP(=O)(O)O (stereo not shown) [Compound 1, 3-N-Acetyl-3-N-(hydroxylamino)-5-phenylpentylphosphonic acid] | 215 nM |  | 
3 | CC(=O)N(O)C(CCC1CCCCC1)CCP(=O)(O)O (stereo not shown) [Compound 2, 3-N-Acetyl-3-N-(hydroxylamino)-5-cyclohexyl-pentylphosphonic acid] | 157 nM |  | 
4 | CC(=O)C(C)(NO)C(CCc1ccccc1)CP(=O)(O)O (stereo not shown) [Compound 3, 3-acetyl-3-(N-hydroxylamino)-3-methyl-2-(2-phenylethyl)propylphosphonic acid] |  | 405 nM | 762000 nM
5 | CC(=O)C(C)(NO)C(CCc1ccccn1)CP(=O)(O)O (stereo not shown) [Compound 4, 3-acetyl-3-(N-hydroxylamino)-3-methyl-2-[2-(2-pyridyl)ethyl]propylphosphonic acid] |  | 375 nM | 736000 nM
